In brackets after ≈: the same amount, converted by molar mass. Where two headings read alike, the source gives them in different places.
Columns and labels:
[1] = test system: E. faecalis 99 (Van R); experiment: MIC determination; format: cell-based; details: Enterococcus faecalis; vancomycin-resistant clinical isolate; Tables 1 and 5
[2] = test system: S. aureus NRS120; experiment: MIC determination; format: cell-based; details: Staphylococcus aureus
[3] = test system: E. faecalis ATCC 29212; experiment: MIC determination; format: cell-based; details: Enterococcus faecalis, ATCC29212
[4] = test system: S. aureus VRS2; experiment: MIC determination; format: cell-based; details: Staphylococcus aureus
[5] = test system: B. licheniformis ATCC 12759; experiment: MIC determination; format: cell-based; details: Bacillus licheniformis, ATCC12759
[6] = test system: S. aureus NRS119; experiment: MIC determination; format: cell-based; details: Staphylococcus aureus
[7] = test system: S. aureus ATCC 27660; experiment: MIC determination; format: cell-based; details: Staphylococcus aureus, ATCC27660
[8] = test system: E. faecium 106 (Van R); experiment: MIC determination; format: cell-based; details: Enterococcus faecium; vancomycin-resistant clinical isolate; Tables 1 and 5; read-out: MIC
Method in brief: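 MIC determined by a previously reported procedure against ATCC reference strains and resistant clinical isolates, including vancomycin-resistant E. faecium 106 and S. aureus VRS1.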

[9] = Full PK study; format: in vivo, mouse; details: compound 1, oral; dose not given
[10] = Full PK study; format: in vivo, mouse
Protocol: A full PK study was conducted with indole 75b after iv and oral (po) administration. This compound had the lowest in vitro toxicity and the highest efficacy in the mouse peritonitis infection model.
Female ICR mice (6-8 weeks old, ˜20-g body weight) were used for the PK and peritonitis studies. Animals were purchased from Harlan Laboratories, Inc. (Indianapolis, Ind., USA) and given Teklad 2019 Extruded Rodent Diet and water ad libitum. Mice were maintained in polycarbonate shoebox cages with ¼″ corncob (The Andersons Inc., Maumee, Ohio) and Alpha-dri (Sheperd Specialty Papers, Inc., Richland, Mich.) bedding under 12-h light/12-h dark cycle at 72±2° F.
Antibiotic 75b was dissolved in 10% DMSO/25% Tween-80/65% water at a concentration of 5 mg/mL. Mice (n=3 per time point per route of administration) were administered 100 μL of 75b (equivalent to 20 mg/kg) iv. A separate group of mice was given 100 μL of 75b (equivalent to 20 mg/kg) orally (po). Terminal blood was collected in heparin by cardiac puncture at 2, 5, 10, 20, and 40 min, and at 1, 2, 3, 4, 8, and 24 h after iv administration and at 0.5, 1, 2, 3, 4, 6, 9, 24, and 36 h after po administration. Blood was centrifuged at 1200 g for 10 min to obtain plasma. Plasma samples were stored at −80° C. until analysis.
Plasma ([…], aliquot) was mixed with 100 μL of acetonitrile containing internal standard (final concentration 8 μg/mL). After centrifugation at 10000 g for 10 min, the supernatant was analyzed by ultraperformance liquid chromatography (UPLC) with UV detection at 285 nm. A Waters Acquity UPLC System (Waters Corporation, Milford, Mass., USA), consisting of a binary pump, an autosampler, a column heater, and a photodiode array detector was used. An Acquity UPLC C18 1.7 μm, 2.1 mm i.d.×50 mm column was used. Elution was at 0.5 mL/min with 70% A/30% B for 2 min, followed by a 10-min linear gradient to 10% A/90% B, then 70% A/30% B for 2 min, where A=0.1% formic acid/water and B=0.1% formic acid/acetonitrile. Monitoring was by UV detection at 285 nm. Calibration curves for each compound were prepared in control plasma containing internal standard. The concentrations in the PK samples were obtained using peak area ratio to the internal standard and the calibration curve regression analysis parameters. The methods were linear from 0.01 to 100 μg/mL; coefficients of determination R^2 range from 0.98 to 0.99.
The area under the curve (AUC), clearance (CL), volume of distribution (Vd), and terminal half-life were calculated using Phoenix WinNonlin 6.3 (Certara LP, St Louis, Mo., USA) noncompartmental analysis using uniform weighing. Half-lives were estimated from the linear portion of the initial or terminal phase of the concentration-time data by linear regression, where the slope of the line was the rate constant k and t1/2=ln 2/k.

[11] = test system: S. aureus ATCC 29213; experiment: Minimal-bactericidal concentration (MBC) determination; format: cell-based, Staphylococcus aureus; details: MSSA strain
Protocol: (§1) The MBC of compound 75b was determined using S. aureus ATCC 29213, S. aureus […], and E. faecium NCTC 7171.
(§2) The MBC of indolyl antibiotic 75b was determined by incubation of 1.5×10^5 cells of S. aureus ATCC29213, S. aureus ATCC 27660, and E. faecium NCTC7171 at MIC, 2×MIC, and 4×MIC. Aliquots of 10 μL (corresponding to 1.5×10^4 cells) were plated on agar plates, incubated for 48 h, and colonies were counted in the presence and absence of […].

[12] = test system: S. aureus ATCC 277660; experiment: as above; format: cell-based, Staphylococcus aureus
Protocol: as §1, §2

[13] = mecA positive, linezolid-resistant, Tables 1 and 5, read-out: MIC
[14] = quality-control strain, Tables 1 and 5, read-out: MIC
[15] = vancomycin-resistant MRSA (vanA) isolate from Pennsylvania, Tables 1 and 5, read-out: MIC
[16] = mecA positive, resistant to methicillin, oxacillin, tetracycline, Tables 1 and 5, read-out: MIC

Compound	MIC [1]	MIC [2, 13]	MIC [3, 14]	MIC [4, 15]	MIC ([5]; Tables 1 and 5, read-out: MIC)	MIC [6, 13]	MIC [7, 16]	MIC [8]	further results
Oc1ccc(-c2nc(-c3ccc(Oc4ccc(C(F)(F)F)cc4)cc3)no2)cc1 [Compound 1]	2 µg/mL (≈ 5.02 µM)	2 µg/mL (≈ 5.02 µM)	2 µg/mL (≈ 5.02 µM)	2 µg/mL (≈ 5.02 µM)	2 µg/mL (≈ 5.02 µM)	2 µg/mL (≈ 5.02 µM)	2 µg/mL (≈ 5.02 µM)	2 µg/mL (≈ 5.02 µM)	t1/2abs [9]: 3.3 h
FC(F)(F)c1ccc(Oc2ccc(-c3noc(-c4n[nH]cc4Cl)n3)cc2)cc1 [Compound 60b, 5-(4-Chloro-1H-pyrazol-3-yl)-3-(4-(4-(trifluoromethyl)phenoxy)phenyl)-1,2,4-oxadiazole]	> 128 µg/mL	64 µg/mL (≈ 157 µM)	> 128 µg/mL	0.5 to 1 µg/mL (≈ 1.23 to 2.46 µM)	> 128 µg/mL		2 µg/mL (≈ 4.92 µM)	> 128 µg/mL	
Fc1ccc(Oc2ccc(-c3noc(-c4n[nH]cc4Cl)n3)cc2)cc1 [Compound 60c, 5-(4-Chloro-1H-pyrazol-3-yl)-3-(4-(4-fluorophenoxy)phenyl)-1,2,4-oxadiazole]	> 128 µg/mL	64 µg/mL (≈ 179 µM)	> 128 µg/mL		> 128 µg/mL	2 µg/mL (≈ 5.61 µM)		> 128 µg/mL	
CC(C)Nc1c[nH]nc1-c1nc(-c2ccc(Oc3ccc(C(F)(F)F)cc3)cc2)no1 [Compound 65b, N-Isopropyl-3-(3-(4-(4-(trifluoromethyl)phenoxy)phenyl)-1,2,4-oxadiazol-5-yl)-1H-pyrazol-4-amine]									MIC [2]: > 128 µg/mL; MIC [3]: > 128 µg/mL; MIC ([4]; MRSA): 4 µg/mL (≈ 9.32 µM); MIC [5]: > 128 µg/mL; MIC [6]: 2 µg/mL (≈ 4.66 µM); MIC [7]: 0.5 µg/mL (≈ 1.16 µM)
C#Cc1c[nH]nc1-c1nc(-c2ccc(Oc3ccc(C(F)(F)F)cc3)cc2)no1 [Compound 66b, 5-(4-Ethynyl-1H-pyrazol-3-yl)-3-(4-(4-(trifluoromethyl)phenoxy)phenyl)-1,2,4-oxadiazole]	> 128 µg/mL	> 128 µg/mL	> 128 µg/mL	0.5 µg/mL (≈ 1.26 µM)	> 128 µg/mL	32 µg/mL (≈ 80.7 µM)	0.5 µg/mL (≈ 1.26 µM)		
FC(F)(F)c1ccc(Oc2ccc(-c3noc(-c4ccc5[nH]ccc5c4)n3)cc2)cc1 [Compound 75b, 5-(1H-Indol-5-yl)-3-(4-(4-(trifluoromethyl)phenoxy)phenyl)-1,2,4-oxadiazole]	16 µg/mL (≈ 38 µM)								AUC0-24 h ([10]; 20 mg/kg iv, mice): 3140 µg·min/mL; AUC0-∞ ([10]; 20 mg/kg iv, mice): 3520 µg·min/mL; CL ([10]; 20 mg/kg iv, mice): 5.68 mL/min/kg; Vd ([10]; 20 mg/kg iv, mice): 4.73 L/kg; t1/2α ([10]; 20 mg/kg iv, mice): t1/2α = 0.54 min; t1/2β (terminal half-life) ([10]; 20 mg/kg iv, mice): 9.6 h; F (oral bioavailability) ([10]; 20 mg/kg po vs iv, mice): 97%; AUC0-24 h ([10]; 20 mg/kg po, mice): 3060 µg·min/mL; AUC0-∞ ([10]; 20 mg/kg po, mice): 4060 µg·min/mL; Cmax ([10]; 20 mg/kg po, mice): 2340 ng/mL; Tmax ([10]; 20 mg/kg po, mice): 6 h; t1/2dist ([10]; 20 mg/kg po, mice): t1/2dist = 15.9 h; t1/2elim (terminal half-life) ([10]; 20 mg/kg po, mice): 18.6 h; clearance, fold lower than 1 ([10]; 75b vs compound 1): 3 fold; volume of distribution, fold higher than 1 ([10]; 75b vs compound 1): 13 fold; MBC relative to MIC [11]: the same as the MIC value; MBC, fold above the MIC [12]: 2 fold

From patent US10662164B2, “Non-beta lactam antibiotics” (University of Notre Dame du Lac, priority 2014, dated 2020)
